Measurements published in US5164399A, “Rapamycin pyrazoles” (American Home Products Corporation, priority 1991, dated 1992).
Where two headings read alike, the source gives them in different places.

Experiments:
[1] = tested on: cells from the thymus of normal BALB/c mice (lymphocyte proliferation); assay: comitogen-induced thymocyte proliferation procedure (LAF); assay type: cell-based; conditions: Mus musculus; for inhibition at 0.1 µM: read-out: LAF percent inhibition at 100 nM
Protocol: (§1) Immunosuppressive activity was evaluated in an in vitro standard pharmacological test procedure to measure lymphocyte proliferation (LAF) and in two in vivo standard pharmacological test procedures. The first in vivo procedure was a popliteal lymph node (PLN) test procedure which measured the effect of compounds of this invention on a mixed lymphocyte reaction and the second in vivo procedure evaluated the survival time of a pinch skin graft.
Briefly, cells from the thymus of normal BALB/c mice are cultured for 72 hours with PHA and IL-1 and pulsed with tritiated thymidine during the last six hours. […] Cells are harvested and incorporated; radioactivity is determined. Inhibition of lymphoproliferation is assessed in percent change in counts per minute from non-drug treated controls. The results are expressed as the IC50, expressed in nM, or as the percent inhibition at 100 nM.

pinch skin graft = assay: survival time of pinch skin graft; assay type: in vivo, male BALB/c mice recipients (male DBA/2 donors); conditions: intraperitoneally
Protocol: as §1
The second in vivo test procedure is designed to determine the survival time of pinch skin graft from male DBA/2 donors transplanted to male BALB/c recipients. The method is adapted from Billingham R. E. and Medawar P. B., J. Exp. Biol. 28: 385-402, (1951). Briefly, a pinch skin graft from the donor is grafted on the dorsum of the recipient as a homograft, and an autograft is used as control in the same region. […] Untreated recipients serve as rejection control. The graft is monitored daily and observations are recorded until the graft becomes dry and forms a blackened scab. This is considered as the rejection day. The mean graft survival time (number of days±S.D.) of the drug treatment group is compared with the control group.

[2] = tested on: popliteal lymph nodes (mixed lymphocyte reaction); assay: in vivo popliteal lymph node (PLN) test procedure (mixed lymphocyte reaction); design: species or system C3H mice (BALB/c donors)
Protocol: as §1
A mixed lymphocyte reaction (MLR) occurs when lymphoid cells from genetically distinct animals are combined in tissue culture. Each stimulates the other to undergo blast transformation which results in increased DNA synthesis that can be quantified by the incorporation of tritiated thymidine. Since stimulating a MLR is a function of disparity at Major Histocompatibility antigens, an in vivo popliteal lymph node (PLN) test procedure closely correlates to host vs. graft disease. Briefly, irradiated spleen cells from BALB/c donors are injected into the right hind foot pad of recipient C3H mice. […] On Day 3 and Day 4, tritiated thymidine is given i.p., b.i.d. On Day 5, the hind popliteal lymph nodes are removed and dissolved, and radioactivity counted. The corresponding left PLN serves as the control for the PLN from the injected hind foot. Percent suppression is calculated using the non-drug treated animals as allogenic control. […]

Candida albicans [3] = conditions: cited from earlier work
Candida albicans [4] = conditions: cited from earlier work; remark: listed apart in the source
organ grafts = conditions: histoincompatible rodents; cited from earlier work
[5] = thymocytes, PHA and IL-1, 72 hours, tritiated thymidine, read-out: LAF IC50

| SMILES | inhibition at 0.1 µM [1] [%] | IC50 [1, 5] [nM] | Skin Graft (days ± SD), mean graft survival time (pinch skin graft) [days] | PLN (ratio) ([2]; i.p. daily Day 0 to Day 4, ratio as defined) | IC50 ([1]; read-out: LAF IC50 of rapamycin as a control for Example 1) [nM] | PLN suppression ([2]; 6 mg/kg, p.o.) [%] | antifungal activity in vitro (Candida albicans [3]) | antifungal activity in vivo (Candida albicans [4]) | prolongation of survival time of organ grafts (organ grafts) |
| --- | --- | --- | --- | --- | --- | --- | --- | --- | --- |
| CO[C@@H]1C(=O)/C(C)=C/[C@@H](C)C(=O)C[C@@H]([C@H](C)C[C@@H]2CC[C@@H](O)[C@H](OC)C2)OC(=O)[C@@H]2CCCCN2C(=O)C(=O)[C@]2(O)O[C@@H](CC[C@H]2C)C[C@H](OC)/C(C)=C/C=C/C=C/[C@@H](C)C[C@@H](C)C1=O [Example 1, 31-Deoxy-31-oxorapamycin] | 41 | 84.9 | 9.16 ± 0.47 | – | – | – | – | – | – |
| CO[C@@H]1C(=O)/C(C)=C/[C@@H](C)C(=O)C[C@@H]([C@H](C)C[C@@H]2CCC(=O)[C@H](OC)C2)OC(=O)[C@@H]2CCCCN2C(=O)C(=O)[C@]2(O)O[C@@H](CC[C@H]2C)C[C@H](OC)/C(C)=C/C=C/C=C/[C@@H](C)C[C@@H](C)C1=O [Example 2, 31,42-Dideoxy-31,42-dioxorapamycin] | 4 | – | – | – | – | – | – | – | – |
| COc1c2n[nH]c1[C@H](C)C[C@H](C)/C=C/C=C/C=C(\C)[C@@H](OC)C[C@@H]1CC[C@@H](C)[C@@](O)(O1)C(=O)C(=O)N1CCCC[C@H]1C(=O)O[C@H]([C@H](C)C[C@@H]1CC[C@@H](O)[C@H](OC)C1)CC(=O)[C@H](C)/C=C/2C [Example 3, 33-Deoxo-31-deoxy-31,33-(1-hydrazinyl-2-ylidene)rapamycin] | – | 205 | – | 0.52 | – | – | – | – | – |
| CO[C@H]1C[C@@H]2CC[C@@H](C)[C@@](O)(O2)C(=O)C(=O)N2CCCC[C@H]2C(=O)O[C@H]([C@H](C)C[C@@H]2CC[C@@H](O)[C@H](OC)C2)CC(=O)[C@H](C)/C=C(\C)[C@@H](O)[C@@H](OC)C(=O)[C@H](C)C[C@H](C)/C=C/C=C/C=C/1C [Rapamycin, rapamycin] | 94 | – | 11.66 ± 0.47 | – | 0.2 | 86 | antifungal activity | antifungal activity | prolong survival time |
